Q: With `N#CCc1ccc([N+](=O)[O-])cc1` as the compound, how does the solubility (mole fraction) (in 1,4-dioxane, 288.15 K) read?
A: 0.0461

Q: What about the solubility (mole fraction) (in 1,4-dioxane, 293.15 K) of the same compound?
A: 0.0567

Q: What about the solubility (mole fraction) (in 1,4-dioxane, 298.15 K) of the same compound?
A: 0.0715

Q: And the solubility (mole fraction) (in 1,4-dioxane, 303.15 K)?
A: 0.0888

Q: And the solubility (mole fraction) (in 1,4-dioxane, 308.15 K)?
A: 0.109

Q: And the solubility (mole fraction) (in 1,4-dioxane, 313.15 K)?
A: 0.134

Q: What about the solubility (mole fraction) (in 1,4-dioxane, 318.15 K) of the same compound?
A: 0.161

Q: What about the solubility (mole fraction) (in 1,4-dioxane, 323.15 K) of the same compound?
A: 0.193

Q: And the solubility (mole fraction) (in 1,4-dioxane, 328.15 K)?
A: 0.232

Q: What about the solubility (mole fraction) (in 1,4-dioxane, 333.15 K) of the same compound?
A: 0.283

Q: What about the solubility (mole fraction) (in 2-butanone, 278.15 K) of the same compound?
A: 0.0458

Q: And the solubility (mole fraction) (in 2-butanone, 283.15 K)?
A: 0.0534

Q: What about the solubility (mole fraction) (in 2-butanone, 288.15 K) of the same compound?
A: 0.0617

Q: And the solubility (mole fraction) (in 2-butanone, 293.15 K)?
A: 0.0717

Q: And the solubility (mole fraction) (in 2-butanone, 298.15 K)?
A: 0.0828

Q: What about the solubility (mole fraction) (in 2-butanone, 303.15 K) of the same compound?
A: 0.0953

Q: And the solubility (mole fraction) (in 2-butanone, 308.15 K)?
A: 0.109

Q: What about the solubility (mole fraction) (in 2-butanone, 313.15 K) of the same compound?
A: 0.126

Q: And the solubility (mole fraction) (in 2-butanone, 318.15 K)?
A: 0.144

Q: What about the solubility (mole fraction) (in 2-butanone, 323.15 K) of the same compound?
A: 0.166

Q: And the solubility (mole fraction) (in 2-butanone, 328.15 K)?
A: 0.189

Q: What about the solubility (mole fraction) (in 2-butanone, 333.15 K) of the same compound?
A: 0.216

Q: And the solubility (mole fraction) (in acetic acid, 293.15 K)?
A: 0.014

Q: And the solubility (mole fraction) (in acetic acid, 298.15 K)?
A: 0.0166

Q: What about the solubility (mole fraction) (in acetic acid, 303.15 K) of the same compound?
A: 0.0195

Q: And the solubility (mole fraction) (in acetic acid, 308.15 K)?
A: 0.0231

Q: And the solubility (mole fraction) (in acetic acid, 313.15 K)?
A: 0.0272

Q: What about the solubility (mole fraction) (in acetic acid, 318.15 K) of the same compound?
A: 0.0319

Q: And the solubility (mole fraction) (in acetic acid, 323.15 K)?
A: 0.0375

Q: What about the solubility (mole fraction) (in acetic acid, 328.15 K) of the same compound?
A: 0.0438

Q: What about the solubility (mole fraction) (in acetic acid, 333.15 K) of the same compound?
A: 0.0516

Q: What about the solubility (mole fraction) (in acetone, 278.15 K) of the same compound?
A: 0.057

Q: What about the solubility (mole fraction) (in acetone, 283.15 K) of the same compound?
A: 0.0658

Q: What about the solubility (mole fraction) (in acetone, 288.15 K) of the same compound?
A: 0.0753

Q: And the solubility (mole fraction) (in acetone, 293.15 K)?
A: 0.0859

Q: And the solubility (mole fraction) (in acetone, 298.15 K)?
A: 0.0974

Q: What about the solubility (mole fraction) (in acetone, 303.15 K) of the same compound?
A: 0.111

Q: And the solubility (mole fraction) (in acetone, 308.15 K)?
A: 0.126

Q: What about the solubility (mole fraction) (in acetone, 313.15 K) of the same compound?
A: 0.143

Q: What about the solubility (mole fraction) (in acetone, 318.15 K) of the same compound?
A: 0.162

Q: What about the solubility (mole fraction) (in acetone, 323.15 K) of the same compound?
A: 0.183

Q: What about the solubility (mole fraction) (in acetone, 328.15 K) of the same compound?
A: 0.206

Q: What about the solubility (mole fraction) (in acetonitrile, 278.15 K) of the same compound?
A: 0.0361

Q: What about the solubility (mole fraction) (in acetonitrile, 283.15 K) of the same compound?
A: 0.0437

Q: What about the solubility (mole fraction) (in acetonitrile, 288.15 K) of the same compound?
A: 0.0519

Q: And the solubility (mole fraction) (in acetonitrile, 293.15 K)?
A: 0.0628

Q: What about the solubility (mole fraction) (in acetonitrile, 298.15 K) of the same compound?
A: 0.0749

Q: What about the solubility (mole fraction) (in acetonitrile, 303.15 K) of the same compound?
A: 0.0899

Q: What about the solubility (mole fraction) (in acetonitrile, 308.15 K) of the same compound?
A: 0.105

Q: And the solubility (mole fraction) (in acetonitrile, 313.15 K)?
A: 0.124

Q: And the solubility (mole fraction) (in acetonitrile, 318.15 K)?
A: 0.145

Q: And the solubility (mole fraction) (in acetonitrile, 323.15 K)?
A: 0.169

Q: And the solubility (mole fraction) (in acetonitrile, 328.15 K)?
A: 0.196

Q: And the solubility (mole fraction) (in acetonitrile, 333.15 K)?
A: 0.228

Q: And the solubility (mole fraction) (in cyclohexane, 283.15 K)?
A: 9.17e-05

Q: And the solubility (mole fraction) (in cyclohexane, 288.15 K)?
A: 0.000111

Q: What about the solubility (mole fraction) (in cyclohexane, 293.15 K) of the same compound?
A: 0.000134

Q: And the solubility (mole fraction) (in cyclohexane, 298.15 K)?
A: 0.000166

Q: And the solubility (mole fraction) (in cyclohexane, 303.15 K)?
A: 0.000209

Q: What about the solubility (mole fraction) (in cyclohexane, 308.15 K) of the same compound?
A: 0.000258

Q: And the solubility (mole fraction) (in cyclohexane, 313.15 K)?
A: 0.000327

Q: What about the solubility (mole fraction) (in cyclohexane, 318.15 K) of the same compound?
A: 0.000409

Q: And the solubility (mole fraction) (in cyclohexane, 323.15 K)?
A: 0.000505

Q: And the solubility (mole fraction) (in cyclohexane, 328.15 K)?
A: 0.000639

Q: What about the solubility (mole fraction) (in cyclohexane, 333.15 K) of the same compound?
A: 0.000822

Q: What about the solubility (mole fraction) (in ethanol, 278.15 K) of the same compound?
A: 0.00183

Q: And the solubility (mole fraction) (in ethanol, 283.15 K)?
A: 0.00223

Q: And the solubility (mole fraction) (in ethanol, 288.15 K)?
A: 0.00279

Q: And the solubility (mole fraction) (in ethanol, 293.15 K)?
A: 0.00352

Q: And the solubility (mole fraction) (in ethanol, 298.15 K)?
A: 0.0043

Q: What about the solubility (mole fraction) (in ethanol, 303.15 K) of the same compound?
A: 0.00536

Q: What about the solubility (mole fraction) (in ethanol, 308.15 K) of the same compound?
A: 0.00654

Q: What about the solubility (mole fraction) (in ethanol, 313.15 K) of the same compound?
A: 0.00788

Q: And the solubility (mole fraction) (in ethanol, 318.15 K)?
A: 0.00986

Q: What about the solubility (mole fraction) (in ethanol, 323.15 K) of the same compound?
A: 0.0122

Q: And the solubility (mole fraction) (in ethanol, 328.15 K)?
A: 0.0149

Q: And the solubility (mole fraction) (in ethanol, 333.15 K)?
A: 0.0178

Q: And the solubility (mole fraction) (in ethyl acetate, 278.15 K)?
A: 0.122

Q: What about the solubility (mole fraction) (in ethyl acetate, 283.15 K) of the same compound?
A: 0.13

Q: And the solubility (mole fraction) (in ethyl acetate, 288.15 K)?
A: 0.14

Q: What about the solubility (mole fraction) (in ethyl acetate, 293.15 K) of the same compound?
A: 0.149

Q: What about the solubility (mole fraction) (in ethyl acetate, 298.15 K) of the same compound?
A: 0.159

Q: And the solubility (mole fraction) (in ethyl acetate, 303.15 K)?
A: 0.17

Q: And the solubility (mole fraction) (in ethyl acetate, 308.15 K)?
A: 0.182

Q: And the solubility (mole fraction) (in ethyl acetate, 313.15 K)?
A: 0.196

Q: What about the solubility (mole fraction) (in ethyl acetate, 318.15 K) of the same compound?
A: 0.21

Q: What about the solubility (mole fraction) (in ethyl acetate, 323.15 K) of the same compound?
A: 0.228

Q: What about the solubility (mole fraction) (in ethyl acetate, 328.15 K) of the same compound?
A: 0.246

Q: And the solubility (mole fraction) (in ethyl acetate, 333.15 K)?
A: 0.268

Q: And the solubility (mole fraction) (in ethylbenzene, 278.15 K)?
A: 0.00564

Q: And the solubility (mole fraction) (in ethylbenzene, 283.15 K)?
A: 0.00685

Q: And the solubility (mole fraction) (in ethylbenzene, 288.15 K)?
A: 0.00784

Source: BigSolDB 2.1
